Where two headings read alike, the source gives them in different places.

By IC50 is commonly meant the concentration that inhibits the measured activity by half.

In assay [1] the target is T1, CCK-A receptor (Pancreas) (Rattus norvegicus, UniProt P30551).
T1 construct: Whole pancreas was removed from male Wister rats; from tissue; host or cells: rat pancreas membranes (male Wistar rats)
T1 sequence (P30551 1-444): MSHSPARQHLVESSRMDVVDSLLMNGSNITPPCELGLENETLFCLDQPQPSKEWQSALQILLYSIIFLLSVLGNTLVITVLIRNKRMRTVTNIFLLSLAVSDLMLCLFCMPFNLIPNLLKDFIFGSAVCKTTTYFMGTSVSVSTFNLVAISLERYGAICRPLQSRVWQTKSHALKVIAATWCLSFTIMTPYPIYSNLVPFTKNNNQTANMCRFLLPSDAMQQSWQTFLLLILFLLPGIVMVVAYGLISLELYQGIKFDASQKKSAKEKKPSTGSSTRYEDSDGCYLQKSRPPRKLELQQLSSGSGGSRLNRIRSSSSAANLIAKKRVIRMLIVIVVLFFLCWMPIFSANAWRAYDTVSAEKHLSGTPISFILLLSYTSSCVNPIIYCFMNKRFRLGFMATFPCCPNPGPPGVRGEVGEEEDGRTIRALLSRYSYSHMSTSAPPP
As to the kind of experiment: Binding to CCK receptor, pancreas membranes, inhibition of 125I-CCK-8 specific binding. On the procedure: (§1) Whole pancreas was removed from male Wister rats. Fat tissue was removed and the pancreas was homogenized (Blinkman Polytron PT20) in 10 mM MES buffer (0.02% Bacitracin, 0.02% soy bean-derived trypsin inhibitor, 0.0001% phenylmethanesulfonyl fluoride, pH 6.5). The homogenate was passed through a nylon cloth (120 mesh) and the filtrate was centrifuged at 40,000×g for 15 minutes. The obtained sediment was homogenized in Tris buffer and centrifuged in the same manner as above. The sediment was suspended in a buffer for binding assay (50 mM MES containing 130 mM sodium chloride, 4.7 mM potassium chloride, 5 mM magnesium chloride, 0.02% Bacitracin, 0.0001% phenylmethanesulfonyl fluoride, pH 6.5) and used as a peripheral receptor source. In the case of central tissue, rat cerebral cortex was used for the preparation by suspending same in a buffer (pH 6.5) containing 5 mM magnesium chloride, 1 mM EGTA [ethylene glycol bis(2-aminoethylether)tetraacetic acid], 360 mM sodium chloride, 15 mM potassium chloride, 20 mM HEPES (N-2-hydroxyethylpiperazine-N'-2-ethanesulfonic acid) and 0.25 mg/ml Bacitracin. For binding assay, 50 μl buffer (for total binding use) and unlabelled CCK-8 sulfate (for non-specific binding) having a final concentration of 1 μM or a test compound (^125 I-CCK-8, 63-67 TBq/mmol, 40,000-50,000 cpm, 50 μl) were added to a membrane suspension (450 μl, containing 100 μg as protein). The reaction mixture was incubated at 20° C. for 30 minutes and filtered through a glass fiber filter (Whatman G/FB) by suction. Immediately thereafter, the filter was washed three times with ice-cold Tris buffer (2.5 ml) and the radioactivity on the filter was determined.
(§2) The effects of the test compound on the CCK receptor binding were evaluated by the concentration (IC50, nM) necessary for inhibiting the specific binding by 50%, which was obtained by calculating the inhibition ratio by the following formula: [formula]
(§3) The results of the effects of the test compounds on the CCK receptor binding are shown in the following

For another assay, the target named is T2, CCK-B receptor (Brain) (Rattus norvegicus, UniProt P30553).
T2 construct: from tissue; host or cells: rat cerebral cortex membranes
T2 sequence (P30553 1-452): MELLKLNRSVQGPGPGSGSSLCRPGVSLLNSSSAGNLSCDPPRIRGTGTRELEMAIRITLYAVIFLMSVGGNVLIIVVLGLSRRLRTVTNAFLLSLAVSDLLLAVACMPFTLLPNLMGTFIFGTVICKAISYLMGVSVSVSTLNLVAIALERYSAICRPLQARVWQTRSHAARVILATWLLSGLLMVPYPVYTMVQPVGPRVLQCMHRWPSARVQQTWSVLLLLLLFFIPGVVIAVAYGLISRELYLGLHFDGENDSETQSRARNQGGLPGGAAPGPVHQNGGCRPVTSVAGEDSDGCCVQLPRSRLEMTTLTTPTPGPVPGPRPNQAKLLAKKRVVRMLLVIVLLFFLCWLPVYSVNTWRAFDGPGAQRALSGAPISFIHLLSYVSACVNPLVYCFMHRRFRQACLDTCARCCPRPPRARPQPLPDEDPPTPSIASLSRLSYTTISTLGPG
As to the kind of experiment: Binding to CCK receptor, cerebral cortex membranes, inhibition of 125I-CCK-8 specific binding. The settings on record: pH 6.5, 20° C., 30 minutes. The method, then: as §1, §2, §3

Assay [2] has as its system CCK-8-induced secretion of pancreatic juice (trypsin secretion). As to the kind of experiment: Effects on CCK-induced secretion of pancreatic juice in guinea pig under anesthesia. In kind it is in vivo. The note with it: 300 μg/kg intravenous, 5 minutes before second CCK-8 (0.1 μg/kg i.v.); male guinea pigs under urethane anesthesia. The method, then: Effects on CCK-induced secretion of pancreatic juice in guinea pig under anesthesia
Male guinea pigs weighing about 650 g were anesthetized by subcutaneous administration of urethane (1.6 g/kg), and a cannula for injection of perfusing solution was inserted into the pyloric part of stomach and a discharge cannula was inserted at a position 2 cm distal from Treitz ligament. Duodenum was perfused with physiological saline at a rate of 8 ml/15 min, and trypsin secretion in the perfusate was determined. For the determination, Na-benzoyl-arginine p-nitroanilide (BAPNA) was used as a synthetic substrate and spectrophotometer was used for the determination. Secretion of pancreatic juice was induced by an intravenous administration of CCK-8 (0.1 μg/kg), and 60 minutes later, CCK-8 was administered again. The inhibition ratio of the test compound which was intravenously administered at 5 minutes before the second administration of CCK-8 was calculated by the following formula: [formula]
The effects of the test compounds on inhibition of secretion of pancreatic juice induced by CCK receptor in guinea pig under anesthesia are shown in the following

[3] abbreviates: rat pancreas membranes, 125I-CCK-8, pH 6.5, 20° C., 30 minutes, read-out: Pancreas (CCK-A) IC50.

As to `CCc1cc(C(=O)c2ccccc2Cl)c(-n2c(C)nnc2CNC(=O)c2ccc(Cl)c(Cl)c2)s1` [Example 11, N-(4-(3-(2-chlorobenzoyl)-5-ethylthiophen-2-yl)-5-methyl[1,2,4]triazol-3-ylmethyl)-3,4-dichlorobenzamide], the IC50 in assay [1] (setting [3]) was 7.5 nM; at CCK-B receptor (Brain), more than 1000 nM.

For the compound `CCc1cc(C(=O)c2ccccc2Cl)c(-n2c(C)nnc2CNC(=O)c2cc3ccccc3[nH]2)s1` [Example 14, N-(4-(3-(2-chlorobenzoyl)-5-ethylthiophen-2-yl)-5-methyl[1,2,4]triazol-3-ylmethyl)indole-2-carboxamide], the IC50 in assay [1] (setting [3]) was 3.7 nM; on CCK-B receptor (Brain) it was more than 1000 nM.

As for `CCc1cc(C(=O)c2ccccc2Cl)c(-n2c(C)nnc2CNC(=O)c2cc3ccccc3n2CC(=O)O)s1` [Example 19, 2-(4-(3-(2-chlorobenzoyl)-5-ethylthiophen-2-yl)-5-methyl[1,2,4]triazol-3-ylmethylcarbamoyl)indole-1-acetic acid], the “Inhibition of CCK-8-induced secretion of pancreatic juice” value (“Inhibition” below) in assay [2] is recorded as 81.9 ± 5.9%. In addition, the IC50 in assay [1] (setting [3]) is 10.6 nM; on CCK-B receptor (Brain), more than 1000 nM.

`CCc1cc(C(=O)c2ccccc2Cl)c(-n2c(C)nnc2CNC(=O)Nc2cccc(C)c2)s1` [Example 26, N-(4-(3-(2-chlorobenzoyl)-5-ethylthiophen-2-yl)-5-methyl[1,2,4]triazol-3-ylmethyl)-N'-(3-methylphenyl)urea]: the IC50 is 5.6 nM in assay [1] (setting [3]) and more than 1000 nM on CCK-B receptor (Brain).

Turning to `CCc1cc(C(=O)c2ccccc2Cl)c(-n2c(C)nnc2CNC(=O)Nc2cccc(OC)c2)s1` [Example 27, N-(4-(3-(2-chlorobenzoyl)-5-ethylthiophen-2-yl)-5-methyl[1,2,4]triazol-3-ylmethyl)-N'-(3-methoxyphenyl)urea], the IC50 in assay [1] (setting [3]) was 4.8 nM; at CCK-B receptor (Brain), more than 1000 nM.

`CCc1cc2c(s1)-n1c(nnc1CNC(=O)c1ccc(Cl)c(Cl)c1)CN=C2c1ccccc1Cl` [Example 59, N-(4-(2-chlorophenyl)-2-ethyl-6H-thieno[3,2-f] [1,2,4]triazolo[4,3-a] [1,4]diazepin-9-ylmethyl)-3,4-dichlorobenzamide]: the IC50 in assay [1] is 13 nM; on CCK-B receptor (Brain) it was more than 1000 nM.

As to `CCc1cc(C(=O)c2ccccc2Cl)c(-n2c(Br)nnc2CNC(=O)c2cc3ccccc3[nH]2)s1` [Example 72, N-(3-bromo-4-(3-(2-chlorobenzoyl)-5-ethylthiophen-2-yl) [1,2,4]triazol-5-ylmethyl)indole-2-carboxamide], the IC50 in assay [1] (setting [3]) is 3.2 nM; at CCK-B receptor (Brain) it was more than 1000 nM.

Turning to `Cc1nnc(CNC(=O)c2cc3ccccc3[nH]2)n1-c1sc(C(=O)O)cc1C(=O)c1ccccc1Cl` [Example 252, (3-(2-chlorobenzoyl)-2-(3-(2-indolecarbonylaminomethyl)-5-methyl[1,2,4]triazol-4-yl)thiophen-5-yl)carboxylic acid], the “Inhibition” value in assay [2] turned out to be 82.6 ± 2.6%. Further, the IC50 is 6.6 nM in assay [1] (setting [3]) and more than 1000 nM on CCK-B receptor (Brain).

In the case of `CCc1cc2c(s1)-n1c(nnc1[C@@H](CCC(=O)O)NC(=O)c1ccc(Cl)c(Cl)c1)CN=C2c1ccccc1Cl` [Example 277, (R)-(-)-4-(3,4-dichlorobenzoylamino)-4-(4-(2-chlorophenyl)-2-ethyl-6H-thieno[3,2-f] [1,2,4]triazolo[4,3-a] [1,4]diazepin-9-yl)butanoic acid], in assay [2], the “Inhibition” value is 85.1 ± 12.1%. The figures for the IC50 (in assay [1]; at CCK-B receptor (Brain)) were 9.6 nM and more than 1000 nM, respectively.

Turning to `CCc1cc2c(s1)-n1c(nnc1[C@@H](CCC(=O)O)NC(=O)c1cc3ccccc3[nH]1)CN=C2c1ccccc1Cl` [Example 280, (R)-(-)-4-(4-(2-chlorophenyl)-2-ethyl-6H-thieno[3,2-f] [1,2,4]triazolo[4,3-a] [1,4]diazepin-9-yl)-4-(1H-indole-2-carboxamide)butanoic acid], the “Inhibition” value in assay [2] turned out to be 78.1 ± 7.6%. For the same compound, the IC50 in assay [1] was 2.7 nM; at CCK-B receptor (Brain), more than 1000 nM.

`CCc1cc(C(=O)c2ccccc2Cl)c(-n2c(C)nnc2CNC(=O)c2ccc(Cl)cc2N)s1` [Example 338, 2-amino-4-chloro-N-(4-(3-(2-chlorobenzoyl)-5-ethylthiophen-2-yl)-5-methyl[1,2,4]triazol-3-ylmethyl)benzamide]: the IC50 in assay [1] (setting [3]) is 7.6 nM; on CCK-B receptor (Brain), more than 1000 nM.

Source of the values: patent US5760032A, “Thienylazole compound and thienotriazolodiazepine compound” (Yoshitomi Pharmaceutical Industries, Ltd., priority 1994, dated 1998).
